The values that follow come from US5610176A, “Tachykinin (NK1) receptor antagonists” (Warner-Lambert Company, priority 1995, dated 1997).

Molecules are shown by their SMILES. pIC50: −log10 of the molar value. Where a name gives a salt, the structure may show the parent alone. Read-outs that look alike come from different tables or passages of the source.

The target in assay [1] is T1, NK1 receptor (Cavia porcellus, UniProt P30547).
T1 construct: Guinea Pig Ileum; from tissue; host or cells: guinea pig ileum
T1 sequence (P30547 whole entry): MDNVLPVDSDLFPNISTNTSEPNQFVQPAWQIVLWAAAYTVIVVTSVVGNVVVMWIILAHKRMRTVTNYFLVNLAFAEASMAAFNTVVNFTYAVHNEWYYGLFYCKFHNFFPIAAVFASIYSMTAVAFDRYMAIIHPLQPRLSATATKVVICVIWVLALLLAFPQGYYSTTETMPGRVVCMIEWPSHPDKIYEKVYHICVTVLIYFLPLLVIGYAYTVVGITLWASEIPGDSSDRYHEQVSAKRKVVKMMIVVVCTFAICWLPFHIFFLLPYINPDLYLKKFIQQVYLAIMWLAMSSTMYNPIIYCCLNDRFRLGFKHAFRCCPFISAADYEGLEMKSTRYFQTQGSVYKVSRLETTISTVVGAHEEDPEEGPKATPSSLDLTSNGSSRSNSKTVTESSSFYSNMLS
Briefly: NK1 antagonist activity in an in vitro NK1 preparation (guinea pig ileum), antagonism of substance-P methylester. The note with it: vs substance-P methylester. Type of assay: cell-based. An excerpt: Therefore, it is expected to be useful in the therapeutic disorders when the attenuation of the NK1 receptor response is the appropriate form of intervention.

A further assay addresses T2, tachykinin NK1 receptor (Homo sapiens, UniProt P25103).
T2 construct: tachykinin NK1 receptor sites in human IM9 lymphoma cells; endogenous in cells; host or cells: human IM9 lymphoma cells
As to the kind of experiment: NK1 binding in human IM9 lymphoma cells, displacement of [125I]Bolton Hunter Substance-P. (In general: In a radioligand displacement assay an active substance lowers the binding of a labelled ligand.)

Assay [2] has as its target T1, NK1 receptor. Briefly: Inhibition of SPOMe-induced plasma protein extravasation in the guinea pig bladder. Type of assay: in vivo. The text has this: They antagonize the ability of a NK1 receptor selective agonist (SPOMe) to induce plasma protein extravasation in the guinea pig bladder. The protocol is similar to that described by Eglezos, et al., Eur. J. Pharmacol., 209: 277-279 (1991).

T2 sequence (P25103 whole entry): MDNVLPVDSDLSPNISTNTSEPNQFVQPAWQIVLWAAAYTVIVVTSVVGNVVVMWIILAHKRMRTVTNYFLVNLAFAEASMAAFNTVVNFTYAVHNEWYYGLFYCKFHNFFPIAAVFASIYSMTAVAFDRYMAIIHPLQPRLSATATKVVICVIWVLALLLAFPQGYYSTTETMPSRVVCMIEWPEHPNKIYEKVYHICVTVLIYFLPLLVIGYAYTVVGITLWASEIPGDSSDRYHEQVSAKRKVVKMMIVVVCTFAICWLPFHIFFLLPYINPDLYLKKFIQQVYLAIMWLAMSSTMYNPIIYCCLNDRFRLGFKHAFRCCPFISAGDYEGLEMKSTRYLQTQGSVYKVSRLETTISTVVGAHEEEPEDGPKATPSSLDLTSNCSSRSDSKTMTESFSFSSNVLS

For orientation: Kb means the equilibrium dissociation constant of an antagonist, usually derived from a functional assay. As usually defined, the pIC50 is the IC50 on a negative log10 scale, so that one unit is a factor of ten. Read a high pIC50 as a low IC50. `C[C@](Cc1c[nH]c2ccccc12)(NC(=O)OCc1ccccc1F)C(=O)N[C@@H](CO)c1ccccc1` [Example 16, Carbamic acid, [2-[(2-hydroxy-1-phenylethyl)amino]-1-(1H-indol-3-ylmethyl)-1-methyl-2-oxoethyl]-, (2-fluorophenyl)methyl ester, [R-(R*,R*)]-] returned a Kb on NK1 receptor [1] of 10.6 nM. This compound showed a pIC50 at tachykinin NK1 receptor of 8.48.
Taken in the same sequence, the figures for `C[C@](Cc1c[nH]c2ccccc12)(NC(=O)OCc1cc(F)ccc1F)C(=O)N[C@@H](CO)c1ccccc1` [Example 17, Carbamic acid, [2-[(2-hydroxy-1-phenylethyl)amino]-1-(1H-indol-3-ylmethyl)-1-methyl-2-oxoethyl]-, (2,5-difluorophenyl)methyl ester, [R-(R*,R*)]] were 9.3 nM and 8.41.
Take `C[C@](Cc1c[nH]c2ccccc12)(NC(=O)OCc1cc2ccccc2o1)C(=O)N[C@@H](CO)c1ccccc1` [Example 6, Carbamic acid, [2-[(2-hydroxy-1-phenylethyl)amino]-1-(1H-indol-3-ylmethyl)-1-methyl-2-oxoethyl]-, 2-benzofuranylmethyl ester, [R-(R*,R*)]-]: the Kb on NK1 receptor [1] amounted to 1.3 nM. The ED50 at NK1 receptor [2] (IV, read-out: ID50 (IV)) came to 0.16 mg/kg; at NK1 receptor [2] (PO, read-out: ID50 (PO)), 30 mg/kg. At tachykinin NK1 receptor, this compound showed a pIC50 of 8.92.
For the compound `C[C@](Cc1c[nH]c2ccccc12)(NC(=O)OCc1ccccc1)C(=O)N[C@@H](CO)c1ccccc1` [Example 15, Carbamic acid, [2-[(2-hydroxy-1-phenylethyl)amino]-1-(1H-indol-3-ylmethyl)-1-methyl-2-oxoethyl]-, phenylmethyl ester, [R-(R* R*)]-], on tachykinin NK1 receptor, the pIC50 is 7.24.
For `C[C@](Cc1c[nH]c2ccccc12)(NC(=O)OCc1cc2ccccc2o1)C(=O)N[C@@H](CN)c1ccccc1` [Example 8, Carbamic acid, [2-[(2-amino-1-phenylethyl)amino]-1-(1H-indol-3-ylmethyl)-1-methyl-2-oxoethyl]-, 2-benzofuranylmethyl ester [R-(R*,R*)]-], the Kb at NK1 receptor [1] came to 16 nM. This compound showed a pIC50 at tachykinin NK1 receptor of 7.89.
Take `CC(C)C[C@H](N)C(=O)OC[C@H](NC(=O)[C@@](C)(Cc1c[nH]c2ccccc12)NC(=O)OCc1cc2ccccc2o1)c1ccccc1` [Example 12, L-Leucine, 2-[[2-[[(2-benzofuranylmethoxy)carbonyl]amino]-3-(1H-indol-3-yl)-2-methyl-1-oxopropyl]amino]-2-phenylethyl ester, [R-(R*,R*)]-]: the Kb at NK1 receptor [1] came to 22 nM. This compound gave a pIC50 on tachykinin NK1 receptor of 7.80.
With `C[C@](Cc1c[nH]c2ccccc12)(NC(=O)OCc1cc2ccccc2s1)C(=O)N[C@@H](CO)c1ccccc1` [Example 18, Carbamic acid, [2-[(2-hydroxy-1-phenylethyl)amino]-1-(1H-indol-3-ylmethyl)-1-methyl-2-oxoethyl]-, benzo[b]thien-2-ylmethyl ester, [R-(R*,R*)]-], the Kb at NK1 receptor [1] stood at 6.3 nM. Further, the pIC50 on tachykinin NK1 receptor is 8.05.
`CN(C)CC(=O)OC[C@H](NC(=O)[C@@](C)(Cc1c[nH]c2ccccc12)NC(=O)OCc1cc2ccccc2o1)c1ccccc1` [Example 9, Glycine, N,N-dimethyl-, 2-[[2-[[(2-benzofuranylmethoxy)carbonyl]amino]-3-(1H-indol-3-yl)-2-methyl-1-oxopropyl]amino]-2-phenylethyl ester, monohydrochloride, [R-(R*,R*)]-] had a Kb at NK1 receptor [1] of 6.2 nM. Besides, the ED50 is 0.16 mg/kg at NK1 receptor [2] (IV, read-out: ID50 (IV)) and 4.4 mg/kg at NK1 receptor [2] (PO, read-out: ID50 (PO)). For the same compound, the pIC50 at tachykinin NK1 receptor was 7.92.
`CN(C)CC(=O)NC[C@H](NC(=O)[C@@](C)(Cc1c[nH]c2ccccc12)NC(=O)OCc1cc2ccccc2o1)c1ccccc1` [Example 10, Carbamic acid, [2-[[(2-[[(dimethylamino)acetyl]amino]-1-phenylethyl]amino]-1-(1H-indol-3-ylmethyl)-1-methyl-2-oxoethyl]-, 2-benzofuranylmethyl ester, monohydrochloride, [R-(R*,R*)]-]: the pIC50 on tachykinin NK1 receptor is 7.08.
